Like-named read-outs stand apart in the source and are kept apart here.
Legend:
CDK2/CycA2 = CDK2/CycA2 (Homo sapiens, UniProt P24941); experiment: CDK2 kinase activity inhibition assay (caliper mobility shift); type: biochemical; settings: CDK2/CycA2 12 nM, ATP 39 μM; read-out: CDK2 kinase inhibitory activity (IC50)
Procedure: (§1) 1) CDK2, CDK4 and CDK6 Kinase Activity Inhibition Assay
(§2) In vitro enzymatic activity of the CDK isoforms CDK2/CycA2, CDK4/CycD3 and CDK6/cycD3 were measured using caliper mobility shift assay. Dissolve the compounds in DMSO and dilute them with corresponding kinase buffer (CDK2/CycA2 and CDK6/CycD3 were assayed with buffer conditions of 50 mM HEPES (pH 7.5), 10 mM MgCl2, 0.0015% Brij-35 and 2 mM dithiothreitol; CDK4/CycD3 was assayed with buffer condition of 20 mM HEPES (pH 7.5), 10 mM MgCl2, 0.01% Triton X-100 and 2 mM dithiothreitol). Add 5 μl of compound (10% DMSO) with 5 times the final concentration of the reaction to a 384-well plate. […] Collect conversion data on Caliper EZ Reader II (Caliper Life Sciences). Convert the conversion rate into inhibition rate data (% inhibition rate=(max−conversion rate)/(max−min)*100). […] Draw a curve with the concentration and inhibition rate of the compound as abscissa and ordinate, and use XLFit excel add-in version 4.3.1 software to fit the curve and calculate IC50.

CDK4/CycD3 = CDK4/CycD3 (Homo sapiens, UniProt P11802); experiment: CDK4 kinase activity inhibition assay (caliper mobility shift); type: biochemical; settings: CDK4/CycD3 10 nM, ATP 221 μM; read-out: CDK4 kinase inhibitory activity (IC50)
Sequence of CDK4/CycD3 (P11802 whole entry): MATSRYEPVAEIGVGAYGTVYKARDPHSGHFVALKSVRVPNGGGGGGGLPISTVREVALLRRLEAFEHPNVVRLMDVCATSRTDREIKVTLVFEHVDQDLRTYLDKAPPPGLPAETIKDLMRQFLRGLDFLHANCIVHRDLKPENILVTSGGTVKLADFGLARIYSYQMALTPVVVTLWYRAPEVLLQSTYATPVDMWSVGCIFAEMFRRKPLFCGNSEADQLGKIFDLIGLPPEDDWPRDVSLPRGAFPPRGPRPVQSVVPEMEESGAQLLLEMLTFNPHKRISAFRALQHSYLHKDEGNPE
Sequence of CDK4/CycD3 (P30281 whole entry partner): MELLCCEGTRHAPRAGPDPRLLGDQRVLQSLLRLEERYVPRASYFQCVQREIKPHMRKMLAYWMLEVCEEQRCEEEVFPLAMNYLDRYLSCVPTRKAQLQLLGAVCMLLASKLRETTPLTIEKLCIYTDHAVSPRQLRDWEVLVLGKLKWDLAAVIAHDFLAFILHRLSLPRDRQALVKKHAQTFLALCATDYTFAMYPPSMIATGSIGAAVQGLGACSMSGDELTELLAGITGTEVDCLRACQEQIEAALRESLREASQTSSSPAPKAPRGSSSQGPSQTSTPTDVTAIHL
Procedure: as §1, §2

CDK6/cycD3 = CDK6/cycD3 (Homo sapiens, UniProt Q00534); experiment: CDK6 kinase activity inhibition assay (caliper mobility shift); type: biochemical; settings: CDK6/cycD3 15 nM, ATP 800 μM; read-out: CDK6 kinase inhibitory activity (IC50)
Sequence of CDK6/cycD3 (Q00534 whole entry): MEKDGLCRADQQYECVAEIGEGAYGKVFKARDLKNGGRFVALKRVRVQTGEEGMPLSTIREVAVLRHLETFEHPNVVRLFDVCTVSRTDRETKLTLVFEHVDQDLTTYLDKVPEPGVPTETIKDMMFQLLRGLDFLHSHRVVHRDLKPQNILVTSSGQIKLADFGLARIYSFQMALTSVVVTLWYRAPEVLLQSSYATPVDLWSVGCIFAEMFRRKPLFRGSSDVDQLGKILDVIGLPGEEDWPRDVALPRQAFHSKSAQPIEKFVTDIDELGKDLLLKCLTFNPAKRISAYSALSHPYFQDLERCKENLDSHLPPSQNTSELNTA
Sequence of CDK6/cycD3 (P30281 whole entry partner): as the sequence (P30281 whole entry partner) above
Procedure: as §1, §2

[1] = Pharmacokinetic study in rats (intragastrical administration, plasma LC-MS/MS); settings: male, SD, rat, po, 3 mg/kg
Procedure: Instruments: XEVO TQ-S LC/MS instrument produced by Waters. All measurement data is collected and processed by Masslynx V4.1 software, and the data is calculated and processed by Microsoft Excel. Using WinNonLin 8.0 software, the statistical moment method was used to calculate the pharmacokinetic parameters. Mainly include kinetic parameters Tmax, T1/2, Cmax, AUClast etc. Column: ACQUITY UPLC BEH C18 (2.1 mm×50 mm, 1.7 μm); column temperature 40° C.; mobile phase A is water (0.1% formic acid), mobile phase B is acetonitrile, flow rate is 0.350 ml/min, gradient elution is adopted, the elution gradient is 0.50 min: 10% B; 1.50 min: 10% B; 2.30 min: 95% B; 2.31 min: 10% B; 3.00 min: stop. Injection volume: 5 μL.
Animals: 3 male SD rats with a weight range of 200-220 g. After purchase, they will be kept in the laboratory of the Experimental Animal Center for 2 days and then used. They will be fasted for 12 hours predose and 4 hours after dosing. Drinking water is free during the test. After the rats were gavage, blood samples were taken according to the established time point.
Solvent: 0.5% Methylcellulose (aqueous solution containing 0.4% Tween 80 and 1% ethanol). Preparation of the solution for intragastrical administration: accurately weigh the compound, add it to the solvent, and use ultrasound at room temperature for 5 minutes to completely dissolve the drug, and prepare a 0.3 mg/ml medicinal solution.
A single administration was also used to study the pharmacokinetics of the drug sample in rats.
After intragastrical administration, blood was taken from the orbit at 0.25, 0.5, 1, 2, 4, 9, 12 and 24 hours, and placed in a plastic centrifuge tube pretreated with sodium heparin. After centrifugation, the supernatant plasma was used for LC-MS/MS analysis.
Accurately weigh the compounds to prepare different concentrations, perform quantitative analysis on mass spectrometry to establish a standard curve, and then test the concentration of the above-mentioned compound in the plasma to obtain the compound concentration at different time points. All measurement data are collected and processed by relevant software, and the statistical moment method is used to calculate the pharmacokinetic parameters (mainly including kinetic parameters Tmax, T1/2, Cmax, AUClast etc).

CDK5/p35NCK = CDK5/p35NCK (Homo sapiens, UniProt Q00535); experiment: CDK5 kinase activity inhibition assay (ADP-Glo); type: biochemical; settings: read-out: CDK5 kinase inhibitory activity (IC50)
Sequence of CDK5/p35NCK (Q00535 whole entry): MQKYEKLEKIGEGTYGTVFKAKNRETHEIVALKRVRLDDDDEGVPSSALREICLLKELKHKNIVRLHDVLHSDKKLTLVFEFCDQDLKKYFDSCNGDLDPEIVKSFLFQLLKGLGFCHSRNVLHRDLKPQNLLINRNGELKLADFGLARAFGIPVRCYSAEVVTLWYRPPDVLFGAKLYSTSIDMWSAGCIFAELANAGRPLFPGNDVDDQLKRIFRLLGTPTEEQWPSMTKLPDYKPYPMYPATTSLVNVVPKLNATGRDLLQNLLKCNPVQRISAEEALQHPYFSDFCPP
Sequence of CDK5/p35NCK (Q15078 whole entry partner): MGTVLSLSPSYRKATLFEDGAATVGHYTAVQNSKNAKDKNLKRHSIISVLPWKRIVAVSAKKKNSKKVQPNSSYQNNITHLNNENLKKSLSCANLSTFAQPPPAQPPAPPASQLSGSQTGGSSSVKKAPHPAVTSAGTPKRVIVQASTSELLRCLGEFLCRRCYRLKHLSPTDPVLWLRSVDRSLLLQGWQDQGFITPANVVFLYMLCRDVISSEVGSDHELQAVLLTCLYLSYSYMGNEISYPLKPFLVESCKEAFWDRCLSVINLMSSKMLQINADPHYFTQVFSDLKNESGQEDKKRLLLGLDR
Procedure: (§3) 3) CDK5, CDK9 and CDK16 Kinase Activity Inhibition Assay
(§4) CDK5/p35NCK, CDK9/CycT1 and CDK16/CycY protein kinase activities were determined using the ADP-Glo Kinase Assay. Dilute the positive compound and the test compound (10 mM stock solution) 25-fold with 100% DMSO, make a 4-fold serial dilution in a 96-well dilution plate, and add 1 μL of the compound to 49 μL of kinase reaction buffer (1 mM Tris, 20 mM MgCl2, 0.10% BSA and 0.5 mM DTT) on a microplate shaker for 20 min. Transfer 2 μL of 2× kinase to the 384-well reaction plate, add 1 μL of the test compound to the 384-well reaction plate, centrifuge at 1000 rpm/min for 1 min, and incubate at 25° C. for 10 min. Transfer 1 μL of the 4× substrate mix to the 384-well reaction plate, centrifuge at 1000 rpm/min for 1 min, and incubate at 25° C. for 60 min. Transfer 4 μL of ADP-Glo to the 384-well reaction plate to centrifuge at 1000 rpm/min for 1 min, and incubate at 25° C. for 40 min. Transfer 8 μL of detection solution to the 384-well reaction plate to centrifuge at 1000 rpm/min for 1 min, and incubate at 25° C. for 40 min. The RLU (Relative luminescence unit) signal was read using a Biotek multifunctional plate reader. Signal intensity is used to characterize the degree of kinase activity. Compound inhibition rate data: % inhibition rate=[1−(compound mean RLU−positive control mean RLU)/(negative control mean RLU−positive control mean RLU)]*100. Taking the log value of the concentration as the X axis and the percentage inhibition rate as the Y axis, the log(inhibitor) vs. response-Variable slope of the analysis software GraphPad Prism 5 was used to fit the dose-response curve to obtain the IC50 value of each compound on the enzyme activity.

CDK9/CycT1 = CDK9/CycT1 (Homo sapiens, UniProt P50750); experiment: CDK9 kinase activity inhibition assay (ADP-Glo); type: biochemical; settings: read-out: CDK9 kinase inhibitory activity (IC50)
Sequence of CDK9/CycT1 (P50750 whole entry): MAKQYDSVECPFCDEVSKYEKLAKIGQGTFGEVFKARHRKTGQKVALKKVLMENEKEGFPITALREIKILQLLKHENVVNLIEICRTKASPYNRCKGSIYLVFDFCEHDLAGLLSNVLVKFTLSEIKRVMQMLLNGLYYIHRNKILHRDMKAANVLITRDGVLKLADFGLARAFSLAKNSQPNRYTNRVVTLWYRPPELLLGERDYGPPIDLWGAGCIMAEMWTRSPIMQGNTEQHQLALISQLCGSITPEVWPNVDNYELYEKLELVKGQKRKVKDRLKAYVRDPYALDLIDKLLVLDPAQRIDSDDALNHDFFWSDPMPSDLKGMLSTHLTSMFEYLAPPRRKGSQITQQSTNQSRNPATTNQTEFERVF
Sequence of CDK9/CycT1 (O60563 whole entry partner): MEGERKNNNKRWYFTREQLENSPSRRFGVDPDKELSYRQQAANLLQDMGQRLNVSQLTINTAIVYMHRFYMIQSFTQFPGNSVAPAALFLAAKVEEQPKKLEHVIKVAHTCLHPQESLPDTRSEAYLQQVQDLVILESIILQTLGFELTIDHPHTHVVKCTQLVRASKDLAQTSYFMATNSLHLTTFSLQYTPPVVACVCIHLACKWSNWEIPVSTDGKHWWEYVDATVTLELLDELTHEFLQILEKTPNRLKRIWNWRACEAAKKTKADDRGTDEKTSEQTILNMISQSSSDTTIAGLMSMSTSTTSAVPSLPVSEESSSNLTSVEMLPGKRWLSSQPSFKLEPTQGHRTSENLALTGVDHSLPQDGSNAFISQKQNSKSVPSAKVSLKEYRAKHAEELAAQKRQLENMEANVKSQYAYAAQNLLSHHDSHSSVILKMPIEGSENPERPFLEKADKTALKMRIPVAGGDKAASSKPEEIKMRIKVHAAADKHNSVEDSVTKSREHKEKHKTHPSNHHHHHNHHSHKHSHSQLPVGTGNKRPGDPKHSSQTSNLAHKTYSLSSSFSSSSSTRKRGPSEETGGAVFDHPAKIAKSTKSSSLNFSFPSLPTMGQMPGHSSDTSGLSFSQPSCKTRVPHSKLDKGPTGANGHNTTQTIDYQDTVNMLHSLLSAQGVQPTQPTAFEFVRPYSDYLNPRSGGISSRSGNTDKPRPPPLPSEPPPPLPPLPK
Procedure: as §3, §4

CDK16/CycY = CDK16/CycY (Homo sapiens, UniProt Q00536); experiment: CDK16 kinase activity inhibition assay (ADP-Glo); type: biochemical; settings: read-out: CDK16 kinase inhibitory activity (IC50)
Sequence of CDK16/CycY (Q00536 whole entry): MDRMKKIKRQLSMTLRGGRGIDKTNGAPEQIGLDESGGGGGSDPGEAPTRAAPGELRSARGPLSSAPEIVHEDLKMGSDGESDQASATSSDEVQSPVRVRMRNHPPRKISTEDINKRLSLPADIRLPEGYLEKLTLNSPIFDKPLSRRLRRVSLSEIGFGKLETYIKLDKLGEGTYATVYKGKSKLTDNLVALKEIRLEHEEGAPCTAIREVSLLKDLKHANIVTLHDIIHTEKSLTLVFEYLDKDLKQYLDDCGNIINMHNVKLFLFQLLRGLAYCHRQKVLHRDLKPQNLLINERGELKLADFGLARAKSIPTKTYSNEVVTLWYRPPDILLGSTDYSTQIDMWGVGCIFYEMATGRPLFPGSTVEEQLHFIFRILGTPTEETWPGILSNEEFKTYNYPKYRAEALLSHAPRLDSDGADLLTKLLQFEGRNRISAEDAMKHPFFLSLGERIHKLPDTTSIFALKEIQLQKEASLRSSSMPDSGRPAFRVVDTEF
Sequence of CDK16/CycY (Q8ND76 whole entry partner): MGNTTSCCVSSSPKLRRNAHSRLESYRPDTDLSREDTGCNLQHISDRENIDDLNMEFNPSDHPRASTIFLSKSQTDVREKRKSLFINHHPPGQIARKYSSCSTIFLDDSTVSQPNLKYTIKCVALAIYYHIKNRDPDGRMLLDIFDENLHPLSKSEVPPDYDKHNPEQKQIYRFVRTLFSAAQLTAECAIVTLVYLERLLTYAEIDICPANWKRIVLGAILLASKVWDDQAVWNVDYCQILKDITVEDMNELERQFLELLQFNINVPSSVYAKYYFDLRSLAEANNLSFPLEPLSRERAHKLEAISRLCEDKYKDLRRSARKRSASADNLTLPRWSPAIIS
Procedure: as §3, §4

TRKA = TRKA (Homo sapiens, UniProt P04629); experiment: TRKA kinase activity inhibition assay (caliper mobility shift); type: biochemical
Sequence of TRKA (P04629 33-796): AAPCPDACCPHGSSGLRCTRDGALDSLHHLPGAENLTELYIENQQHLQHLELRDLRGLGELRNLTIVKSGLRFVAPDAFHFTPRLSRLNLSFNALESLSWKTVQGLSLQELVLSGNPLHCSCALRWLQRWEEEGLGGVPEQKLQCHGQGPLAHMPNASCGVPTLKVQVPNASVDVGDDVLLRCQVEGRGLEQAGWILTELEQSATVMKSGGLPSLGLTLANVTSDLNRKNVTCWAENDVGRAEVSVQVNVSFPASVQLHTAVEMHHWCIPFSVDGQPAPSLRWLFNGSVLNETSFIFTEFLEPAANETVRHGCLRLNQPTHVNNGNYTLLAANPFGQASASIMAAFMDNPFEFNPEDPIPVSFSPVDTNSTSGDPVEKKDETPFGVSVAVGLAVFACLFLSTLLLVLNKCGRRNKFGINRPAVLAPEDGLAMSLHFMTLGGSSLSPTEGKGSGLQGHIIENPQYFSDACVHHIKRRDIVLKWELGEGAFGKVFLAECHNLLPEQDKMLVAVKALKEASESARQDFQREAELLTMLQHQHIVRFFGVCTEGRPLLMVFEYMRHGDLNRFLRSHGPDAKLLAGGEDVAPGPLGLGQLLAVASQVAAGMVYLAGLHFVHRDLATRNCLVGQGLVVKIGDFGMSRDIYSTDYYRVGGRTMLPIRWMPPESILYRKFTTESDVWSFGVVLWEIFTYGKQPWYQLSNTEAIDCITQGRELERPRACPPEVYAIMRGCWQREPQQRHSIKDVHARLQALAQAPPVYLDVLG
Procedure: 2) TRKA Kinase Activity Inhibition Assay
TRKA protein kinase activity was measured by caliper mobility shift assay. Compounds were dissolved in DMSO to make up 10 mM stock solutions. Prepare 1× kinase reaction buffer to serially dilute compounds. 250 nL 100× final concentration of the test compounds were transferred to destination plate 3573 by dispenser Echo 550. Prepare a 2.5× final concentration of kinase solution with 1× kinase buffer. Add 10 μL of 2.5× final kinase solution to compound wells and positive control wells; add 10 μL of 1× kinase buffer to negative control wells. Centrifuge at 1000 rpm for 30 s, shake and mix the reaction plate and incubate at room temperature for 10 min. Prepare a mixture of ATP and kinase substrate solution at 5/3× final concentration with 1× kinase buffer. The reaction was initiated by adding 15 μL of the mixed solution. Centrifuge the 384-well plate at 1000 rpm for 30 s, shake and mix well, and incubate at room temperature for the corresponding time. Add 30 μL of stop solution to stop the kinase reaction, centrifuge at 1000 rpm for 30 s, mix by shaking, and read the conversion rate data with Caliper EZ Reader. Convert conversion to inhibition data (% inhibition=(max DMSO well conversion−sample well conversion)/(max DMSO well conversion−min negative control conversion)*100). Wherein max refers to the conversion rate of the DMSO control, and min refers to the conversion rate of the non-enzymatic control. Draw a curve with the concentration and inhibition rate of the compound as abscissa and ordinate, and use XLFit excel add-in version 4.3.1 software to fit the curve and calculate IC50.

[2] = read-out: TRKA kinase inhibitory activity (IC50)

IC50 (CDK2/CycA2) | IC50 (CDK4/CycD3) | IC50 (CDK6/cycD3) | AUC(0-t) [1] | Cmax [1] | Tmax [1] | half-life [1] | IC50 (CDK5/p35NCK) | IC50 (CDK9/CycT1) | IC50 (CDK16/CycY) | IC50 (TRKA; [2]) | Compound | IC50 (TRKA)
– | – | – | 108 ng·h/mL | 13.9 ng/mL | 3.33 h | 6.71 h | – | – | – | – | CC(=O)c1c(C)c2cnc(Nc3ccc4c(c3)OCC3CNCCN43)nc2n(C2CCCC2)c1=O (centres unmarked) [Ref-B, reference compound] | –
< 500 nM | < 10 nM | – | – | – | – | – | – | – | – | – | CC(=O)c1c(C)c2cnc(Nc3ccc4c(c3)OC[C@@H]3CN(C5CCC5)CCN43)nc2n(C2CCCC2)c1=O [Compound 18S] | –
< 500 nM | < 10 nM | – | – | – | – | – | – | – | – | – | CC(=O)c1c(C)c2cnc(Nc3ccc4c(c3)OC[C@@H]3CN(C5CCN(CC(F)(F)F)CC5)CCN43)nc2n(C2CCCC2)c1=O [Compound 16S] | –
< 500 nM | – | – | – | – | – | – | – | – | – | – | CC(=O)c1c(C)c2cnc(Nc3ccc4c(c3)N3CCN(C5CCN(C(C)=O)CC5)C[C@H]3CO4)nc2n(C2CCCC2)c1=O [Compound 21S] | –
< 100 nM | < 10 nM | – | – | – | – | – | – | – | – | – | CC(=O)c1c(C)c2cnc(Nc3ccc4c(c3)OC[C@@H]3CN(C5CCN(CC#N)CC5)CCN43)nc2n(C2CCCC2)c1=O [Compound 17S] | –
< 500 nM | < 100 nM | – | – | – | – | – | – | – | – | – | CC(=O)c1c(C)c2cnc(Nc3ccc4c(c3)N3CCN(C5CCN(C)CC5)C[C@H]3CO4)nc2n(C2CCCC2)c1=O [Compound 19S] | –
< 500 nM | – | – | – | – | – | – | – | – | – | – | CC(=O)c1c(C)c2cnc(Nc3ccc4c(c3)N3CCN(C5CCNCC5)C[C@H]3CO4)nc2n(C2CCCC2)c1=O [Compound 20S] | –

More lines, now with the values behind:

Compound | IC50 (CDK2/CycA2) | IC50 (CDK4/CycD3) | IC50 (CDK6/cycD3) | AUC(0-t) [1] | Cmax [1] | Tmax [1] | half-life [1] | IC50 (CDK5/p35NCK) | IC50 (CDK9/CycT1) | IC50 (CDK16/CycY) | IC50 (TRKA; [2]) | IC50 (TRKA)
CC(=O)c1c(C)c2cnc(Nc3ccc4c(c3)OC[C@@H]3CN(C5CCN(C6CC6)CC5)CCN43)nc2n(C2CCCC2)c1=O [Compound 6S] | < 100 nM | < 10 nM | < 10 nM | 662 ng·h/mL | 54.9 ng/mL | 6.67 h | 4.31 h | – | – | – | – | –
CC(=O)c1c(C)c2cnc(Nc3cc(F)c4c(c3)OC[C@@H]3CN(C5CCN(C)CC5)CCN43)nc2n(C2CCCC2)c1=O [Compound 9S] | < 500 nM | < 10 nM | < 50 nM | 697 ng·h/mL | 42.5 ng/mL | 12 h | 15.6 h | – | – | – | – | –
CC(=O)c1c(C)c2cnc(Nc3ccc4c(c3)OC[C@@H]3CN(C5CCN(C(C)=O)CC5)CCN43)nc2n(C2CCCC2)c1=O [Compound 5S] | < 100 nM | < 10 nM | < 10 nM | 2480 ng·h/mL | 266 ng/mL | 6 h | 2.18 h | – | – | – | – | –
CC(=O)c1c(C)c2cnc(Nc3ccc4c(c3)OC[C@@H]3CN(C5CCNCC5)CCN43)nc2n(C2CCCC2)c1=O [Compound 3S] | < 100 nM | < 10 nM | < 10 nM | 1230 ng·h/mL | 85.7 ng/mL | 5.33 h | 5.68 h | < 100 nM | < 20 nM | < 50 nM | < 10 nM | –
CC(=O)c1c(C)c2cnc(Nc3ccc4c(c3)OC[C@@H]3CN(C5CC(F)(F)C5)CCN43)nc2n(C2CCCC2)c1=O [Compound 15S] | < 1000 nM | < 50 nM | – | – | – | – | – | – | – | – | < 100 nM | –
CC(=O)c1c(C)c2cnc(Nc3ccc4c(c3)OC[C@H]3CN(C5CCOCC5)CCN43)nc2n(C2CCCC2)c1=O [Compound 1R] | < 100 nM | < 10 nM | < 20 nM | 274 ng·h/mL | 43.4 ng/mL | 2 h | 2.96 h | < 100 nM | < 50 nM | < 100 nM | < 10 nM | –
CC(=O)c1c(C)c2cnc(Nc3ccc4c(c3)OC[C@@H]3CN(C5CN(C(C)=O)C5)CCN43)nc2n(C2CCCC2)c1=O [Compound 11S] | < 100 nM | < 10 nM | < 20 nM | 3000 ng·h/mL | 424 ng/mL | 2 h | 2.61 h | – | – | – | < 10 nM | –
CC(=O)c1c(C)c2cnc(Nc3ccc4c(c3)OC[C@@H]3CN(C5COC5)CCN43)nc2n(C2CCCC2)c1=O [Compound 13S] | < 100 nM | < 10 nM | < 20 nM | 860 ng·h/mL | 169 ng/mL | 1.83 h | 1.95 h | – | – | – | – | –
CC(=O)c1c(C)c2cnc(Nc3ccc4c(c3)OC[C@H]3CN(C5CCN(C(C)=O)CC5)CCN43)nc2n(C2CCCC2)c1=O [Compound 5R] | < 100 nM | < 10 nM | < 20 nM | 4350 ng·h/mL | 438 ng/mL | 6.67 h | 2.91 h | < 200 nM | < 50 nM | < 200 nM | < 10 nM | –
CC(=O)c1c(C)c2cnc(Nc3ccc4c(c3)OC[C@H]3CN(C5CCN(C)CC5)CCN43)nc2n(C2CCCC2)c1=O [Compound 2R] | < 100 nM | < 10 nM | < 10 nM | – | – | – | – | – | – | – | – | < 10 nM
CC(=O)c1c(C)c2cnc(Nc3ccc4c(c3)OC[C@@H]3CN(C5CCOCC5)CCN43)nc2n(C2CCCC2)c1=O [Compound 1S] | < 100 nM | < 10 nM | < 20 nM | 192 ng·h/mL | 37.3 ng/mL | 3 h | 6.41 h | – | – | – | – | –
CC(=O)c1c(C)c2cnc(Nc3ccc4c(c3)OC[C@@H]3CN(C5CN(C6CC6)C5)CCN43)nc2n(C2CCCC2)c1=O [Compound 12S] | < 100 nM | < 10 nM | < 10 nM | – | – | – | – | – | – | – | – | –
CC(=O)c1c(C)c2cnc(Nc3cc(C)c4c(c3)OC[C@@H]3CN(C5CCN(C)CC5)CCN43)nc2n(C2CCCC2)c1=O [Compound 8S] | < 500 nM | < 20 nM | < 100 nM | – | – | – | – | – | – | – | – | –
CC(=O)c1c(C)c2cnc(Nc3ccc4c(c3)OC[C@H]3CN(C5CCNCC5)CCN43)nc2n(C2CCCC2)c1=O [Compound 3R] | < 100 nM | < 10 nM | < 10 nM | – | – | – | – | – | – | – | – | –
CC(=O)c1c(C)c2cnc(Nc3ccc4c(c3)OC[C@@H]3CN(C5CN(S(C)(=O)=O)C5)CCN43)nc2n(C2CCCC2)c1=O [Compound 14S] | < 100 nM | < 10 nM | < 20 nM | 2030 ng·h/mL | 442 ng/mL | 1.33 h | 1.84 h | – | – | – | – | –

From patent publication US12589092B2, “Polycyclic compound acting as kinase inhibitor” (HANGZHOU INNOGATE PHARMA CO., LTD., priority 2020, dated 2026)
